Values of other authors in publication PMC9851200, “Multiparameter phenotypic screening for endogenous TFEB and TFE3 translocation identifies novel chemical series modulating lysosome function” (Autophagy, 2022).

Key:
Set-up in all cases: method as in original PKIS2 published data
[1] = molecular target: T1, kinases (KINOMEscan panel) (Homo sapiens, UniProt O14976); conditions: kinase GAK; Published KINOMEscan; ref original PKIS2 published data; cited from earlier work
T1 sequence (O14976 1-1311): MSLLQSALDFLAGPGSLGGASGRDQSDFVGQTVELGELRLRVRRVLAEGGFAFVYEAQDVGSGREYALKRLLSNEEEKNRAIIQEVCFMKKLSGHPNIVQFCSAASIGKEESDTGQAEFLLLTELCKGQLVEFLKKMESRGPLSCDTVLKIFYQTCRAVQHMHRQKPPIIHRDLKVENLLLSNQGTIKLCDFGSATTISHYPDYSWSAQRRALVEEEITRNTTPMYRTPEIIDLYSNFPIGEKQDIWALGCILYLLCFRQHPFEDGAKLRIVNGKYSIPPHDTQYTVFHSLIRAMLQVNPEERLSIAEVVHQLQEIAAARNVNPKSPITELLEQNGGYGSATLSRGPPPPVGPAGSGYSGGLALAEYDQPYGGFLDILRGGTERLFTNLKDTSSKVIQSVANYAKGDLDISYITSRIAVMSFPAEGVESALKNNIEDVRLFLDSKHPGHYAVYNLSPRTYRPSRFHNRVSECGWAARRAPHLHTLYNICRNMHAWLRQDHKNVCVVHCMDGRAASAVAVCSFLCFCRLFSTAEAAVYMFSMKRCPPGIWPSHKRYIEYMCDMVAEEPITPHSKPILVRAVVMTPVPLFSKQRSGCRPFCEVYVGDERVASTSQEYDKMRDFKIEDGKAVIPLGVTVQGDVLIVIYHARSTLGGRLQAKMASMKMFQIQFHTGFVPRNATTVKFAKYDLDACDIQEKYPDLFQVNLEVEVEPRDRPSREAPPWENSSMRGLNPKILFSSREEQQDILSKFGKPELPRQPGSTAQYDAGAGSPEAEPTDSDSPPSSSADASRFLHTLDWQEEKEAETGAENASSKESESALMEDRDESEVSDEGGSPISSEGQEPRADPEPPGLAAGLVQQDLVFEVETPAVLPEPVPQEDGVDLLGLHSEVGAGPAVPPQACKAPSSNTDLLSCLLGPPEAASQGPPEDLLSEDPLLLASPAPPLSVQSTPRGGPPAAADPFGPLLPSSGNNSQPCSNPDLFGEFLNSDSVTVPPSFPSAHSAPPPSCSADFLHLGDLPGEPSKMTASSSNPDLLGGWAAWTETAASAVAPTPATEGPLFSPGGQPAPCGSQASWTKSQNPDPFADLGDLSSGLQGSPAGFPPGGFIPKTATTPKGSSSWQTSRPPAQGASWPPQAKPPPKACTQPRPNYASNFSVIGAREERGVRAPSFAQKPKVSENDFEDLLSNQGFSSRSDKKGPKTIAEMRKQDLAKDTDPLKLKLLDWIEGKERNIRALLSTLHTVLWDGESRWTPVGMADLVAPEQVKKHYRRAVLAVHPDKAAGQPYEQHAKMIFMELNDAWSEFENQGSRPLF

[2] = molecular target: kinases (KINOMEscan panel) (Homo sapiens, UniProt P17612); conditions: kinase PRKACA; Published KINOMEscan; ref original PKIS2 published data; cited from earlier work
[3] = molecular target: kinases (KINOMEscan panel) (Homo sapiens, UniProt P27037); conditions: ACVR2A; Published KINOMEscan; ref original PKIS2 published data; cited from earlier work
[4] = molecular target: kinases (KINOMEscan panel) (Homo sapiens, UniProt P30291); conditions: WEE1; Published KINOMEscan; ref original PKIS2 published data; cited from earlier work
[5] = molecular target: kinases (KINOMEscan panel) (Homo sapiens, UniProt P49336); conditions: CDK8; Published KINOMEscan; ref original PKIS2 published data; cited from earlier work
[6] = molecular target: kinases (KINOMEscan panel) (Homo sapiens, UniProt Q13555); conditions: CAMK2G; Published KINOMEscan; ref original PKIS2 published data; cited from earlier work
[7] = molecular target: kinases (KINOMEscan panel) (Homo sapiens, UniProt Q5S007); conditions: Published KINOMEscan; ref original PKIS2 published data; cited from earlier work
[8] = molecular target: T2, kinases (KINOMEscan panel) (Homo sapiens, UniProt Q9UHD2); conditions: TBK1; Published KINOMEscan; ref original PKIS2 published data; cited from earlier work
T2 sequence (Q9UHD2 1-729): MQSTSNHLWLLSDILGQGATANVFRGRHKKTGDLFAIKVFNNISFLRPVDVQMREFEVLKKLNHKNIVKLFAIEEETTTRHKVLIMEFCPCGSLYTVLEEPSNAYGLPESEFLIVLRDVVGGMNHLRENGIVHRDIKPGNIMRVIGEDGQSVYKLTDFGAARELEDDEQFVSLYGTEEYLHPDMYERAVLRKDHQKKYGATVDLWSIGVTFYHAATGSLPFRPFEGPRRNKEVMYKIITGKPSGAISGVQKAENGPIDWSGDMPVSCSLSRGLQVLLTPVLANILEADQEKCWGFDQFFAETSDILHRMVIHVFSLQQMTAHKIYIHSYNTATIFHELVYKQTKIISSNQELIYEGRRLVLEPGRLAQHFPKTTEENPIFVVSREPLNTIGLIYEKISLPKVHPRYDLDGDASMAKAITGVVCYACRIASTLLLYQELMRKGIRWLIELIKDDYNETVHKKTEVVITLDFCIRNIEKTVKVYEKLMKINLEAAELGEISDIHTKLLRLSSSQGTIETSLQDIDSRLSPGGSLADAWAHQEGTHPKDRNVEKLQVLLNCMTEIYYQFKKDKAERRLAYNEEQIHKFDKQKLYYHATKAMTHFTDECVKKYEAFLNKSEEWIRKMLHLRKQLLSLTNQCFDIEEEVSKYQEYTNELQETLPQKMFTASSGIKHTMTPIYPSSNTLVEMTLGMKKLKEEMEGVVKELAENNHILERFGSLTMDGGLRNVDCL

kinases (KINOMEscan panel) (Homo sapiens, UniProt Q13555), sequence (Q13555 whole entry): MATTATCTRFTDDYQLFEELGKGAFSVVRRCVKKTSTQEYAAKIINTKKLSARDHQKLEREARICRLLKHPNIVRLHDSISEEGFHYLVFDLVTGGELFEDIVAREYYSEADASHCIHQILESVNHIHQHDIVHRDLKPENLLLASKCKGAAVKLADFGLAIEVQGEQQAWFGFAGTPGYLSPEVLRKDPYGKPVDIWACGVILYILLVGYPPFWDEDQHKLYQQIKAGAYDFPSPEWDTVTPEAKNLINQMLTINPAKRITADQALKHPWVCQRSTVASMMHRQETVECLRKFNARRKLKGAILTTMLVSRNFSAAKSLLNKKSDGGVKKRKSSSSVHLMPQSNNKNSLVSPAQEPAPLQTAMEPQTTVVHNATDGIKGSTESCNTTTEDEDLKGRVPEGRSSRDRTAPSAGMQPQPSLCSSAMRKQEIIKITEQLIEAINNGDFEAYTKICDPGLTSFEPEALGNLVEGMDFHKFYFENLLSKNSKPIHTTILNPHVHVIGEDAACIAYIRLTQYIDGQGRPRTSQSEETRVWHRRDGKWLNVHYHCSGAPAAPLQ
kinases (KINOMEscan panel) (Homo sapiens, UniProt P49336), sequence (P49336 whole entry): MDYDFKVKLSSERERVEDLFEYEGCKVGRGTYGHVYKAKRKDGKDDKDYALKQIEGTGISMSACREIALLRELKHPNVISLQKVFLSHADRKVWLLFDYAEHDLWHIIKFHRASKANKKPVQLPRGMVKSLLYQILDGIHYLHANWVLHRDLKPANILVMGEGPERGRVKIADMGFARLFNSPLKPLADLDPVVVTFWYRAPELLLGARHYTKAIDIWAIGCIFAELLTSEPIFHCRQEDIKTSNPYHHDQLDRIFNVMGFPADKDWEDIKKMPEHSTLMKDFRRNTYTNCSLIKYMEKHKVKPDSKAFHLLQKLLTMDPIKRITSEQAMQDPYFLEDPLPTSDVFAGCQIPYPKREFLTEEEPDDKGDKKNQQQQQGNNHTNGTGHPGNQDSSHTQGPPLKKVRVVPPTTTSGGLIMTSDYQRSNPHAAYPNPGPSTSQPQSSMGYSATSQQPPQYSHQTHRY
kinases (KINOMEscan panel) (Homo sapiens, UniProt P30291), sequence (P30291 whole entry): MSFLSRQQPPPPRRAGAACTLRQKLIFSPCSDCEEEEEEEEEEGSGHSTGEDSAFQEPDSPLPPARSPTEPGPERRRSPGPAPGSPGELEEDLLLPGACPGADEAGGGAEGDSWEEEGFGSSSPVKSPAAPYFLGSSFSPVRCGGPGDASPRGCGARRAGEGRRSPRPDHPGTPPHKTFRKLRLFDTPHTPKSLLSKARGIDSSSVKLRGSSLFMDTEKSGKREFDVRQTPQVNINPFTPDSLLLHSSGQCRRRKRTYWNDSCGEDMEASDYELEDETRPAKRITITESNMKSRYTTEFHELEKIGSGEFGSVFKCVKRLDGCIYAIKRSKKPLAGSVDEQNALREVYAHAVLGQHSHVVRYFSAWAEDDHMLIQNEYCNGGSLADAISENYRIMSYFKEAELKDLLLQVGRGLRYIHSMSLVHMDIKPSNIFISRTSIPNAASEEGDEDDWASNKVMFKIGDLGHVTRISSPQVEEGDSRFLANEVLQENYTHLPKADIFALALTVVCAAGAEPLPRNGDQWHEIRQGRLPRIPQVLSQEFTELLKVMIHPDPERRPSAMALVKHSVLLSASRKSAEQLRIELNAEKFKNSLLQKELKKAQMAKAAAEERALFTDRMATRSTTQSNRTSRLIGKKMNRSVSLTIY
kinases (KINOMEscan panel) (Homo sapiens, UniProt Q5S007), sequence (Q5S007 whole entry): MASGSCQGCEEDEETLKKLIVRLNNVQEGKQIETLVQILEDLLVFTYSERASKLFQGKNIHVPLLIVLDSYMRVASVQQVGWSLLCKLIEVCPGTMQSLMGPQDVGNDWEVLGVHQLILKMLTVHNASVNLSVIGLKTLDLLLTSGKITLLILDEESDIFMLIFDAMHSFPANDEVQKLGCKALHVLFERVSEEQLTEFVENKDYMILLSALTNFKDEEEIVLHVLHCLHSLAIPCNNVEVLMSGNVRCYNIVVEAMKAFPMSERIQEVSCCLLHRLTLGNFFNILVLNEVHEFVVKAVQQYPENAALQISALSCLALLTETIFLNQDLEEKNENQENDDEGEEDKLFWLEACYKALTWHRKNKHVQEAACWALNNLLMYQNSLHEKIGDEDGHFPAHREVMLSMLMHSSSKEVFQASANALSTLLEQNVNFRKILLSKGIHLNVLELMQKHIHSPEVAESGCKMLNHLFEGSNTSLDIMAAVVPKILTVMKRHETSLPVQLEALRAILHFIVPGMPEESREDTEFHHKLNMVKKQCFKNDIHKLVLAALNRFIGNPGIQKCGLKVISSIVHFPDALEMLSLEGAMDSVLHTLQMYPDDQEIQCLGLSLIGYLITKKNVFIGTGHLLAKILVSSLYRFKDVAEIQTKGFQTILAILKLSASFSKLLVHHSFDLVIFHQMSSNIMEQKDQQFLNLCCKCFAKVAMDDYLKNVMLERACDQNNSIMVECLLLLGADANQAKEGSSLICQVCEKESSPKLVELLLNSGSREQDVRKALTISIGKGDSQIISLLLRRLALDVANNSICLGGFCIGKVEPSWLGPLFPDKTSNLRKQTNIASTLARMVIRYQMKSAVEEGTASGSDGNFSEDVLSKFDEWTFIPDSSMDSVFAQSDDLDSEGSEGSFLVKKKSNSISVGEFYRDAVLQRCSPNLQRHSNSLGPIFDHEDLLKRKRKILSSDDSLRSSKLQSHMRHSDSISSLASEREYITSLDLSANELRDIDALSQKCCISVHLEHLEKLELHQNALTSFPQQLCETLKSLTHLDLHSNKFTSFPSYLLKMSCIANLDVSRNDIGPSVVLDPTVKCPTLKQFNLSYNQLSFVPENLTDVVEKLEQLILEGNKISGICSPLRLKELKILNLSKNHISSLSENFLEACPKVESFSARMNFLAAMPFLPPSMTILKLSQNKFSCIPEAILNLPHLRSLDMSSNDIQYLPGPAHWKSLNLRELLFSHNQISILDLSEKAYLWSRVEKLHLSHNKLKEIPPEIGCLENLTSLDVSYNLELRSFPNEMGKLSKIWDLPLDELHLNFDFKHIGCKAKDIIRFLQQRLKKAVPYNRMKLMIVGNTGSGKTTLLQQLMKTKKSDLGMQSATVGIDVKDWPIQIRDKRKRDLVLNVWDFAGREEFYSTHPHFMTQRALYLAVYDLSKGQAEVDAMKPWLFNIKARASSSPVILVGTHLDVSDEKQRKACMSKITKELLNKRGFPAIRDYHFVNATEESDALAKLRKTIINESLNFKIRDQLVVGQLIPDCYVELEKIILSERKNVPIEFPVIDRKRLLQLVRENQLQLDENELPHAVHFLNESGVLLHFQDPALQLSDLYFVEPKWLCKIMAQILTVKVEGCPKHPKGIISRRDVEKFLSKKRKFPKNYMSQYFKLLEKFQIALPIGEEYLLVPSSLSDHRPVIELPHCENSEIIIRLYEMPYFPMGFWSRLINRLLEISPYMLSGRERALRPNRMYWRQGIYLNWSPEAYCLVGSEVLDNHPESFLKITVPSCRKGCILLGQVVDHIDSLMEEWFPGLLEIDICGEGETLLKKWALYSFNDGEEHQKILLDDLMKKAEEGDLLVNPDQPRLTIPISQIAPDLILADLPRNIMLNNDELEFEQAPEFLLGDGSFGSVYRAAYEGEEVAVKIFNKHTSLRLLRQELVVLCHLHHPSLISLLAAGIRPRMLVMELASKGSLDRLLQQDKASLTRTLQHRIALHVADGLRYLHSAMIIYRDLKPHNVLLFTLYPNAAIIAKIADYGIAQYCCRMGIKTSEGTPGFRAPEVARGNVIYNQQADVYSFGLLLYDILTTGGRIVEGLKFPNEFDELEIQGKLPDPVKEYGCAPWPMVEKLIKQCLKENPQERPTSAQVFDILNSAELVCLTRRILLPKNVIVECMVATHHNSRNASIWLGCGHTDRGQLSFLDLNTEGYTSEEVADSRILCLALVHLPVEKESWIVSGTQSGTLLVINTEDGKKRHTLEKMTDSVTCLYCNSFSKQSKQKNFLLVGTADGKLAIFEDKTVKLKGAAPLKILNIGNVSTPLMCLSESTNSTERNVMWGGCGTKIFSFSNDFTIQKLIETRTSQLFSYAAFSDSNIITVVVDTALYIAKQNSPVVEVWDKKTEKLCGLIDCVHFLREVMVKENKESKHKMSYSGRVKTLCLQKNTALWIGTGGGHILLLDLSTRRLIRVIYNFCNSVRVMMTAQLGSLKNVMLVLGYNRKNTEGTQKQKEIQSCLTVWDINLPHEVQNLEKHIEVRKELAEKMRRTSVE
kinases (KINOMEscan panel) (Homo sapiens, UniProt P27037), sequence (P27037 20-513): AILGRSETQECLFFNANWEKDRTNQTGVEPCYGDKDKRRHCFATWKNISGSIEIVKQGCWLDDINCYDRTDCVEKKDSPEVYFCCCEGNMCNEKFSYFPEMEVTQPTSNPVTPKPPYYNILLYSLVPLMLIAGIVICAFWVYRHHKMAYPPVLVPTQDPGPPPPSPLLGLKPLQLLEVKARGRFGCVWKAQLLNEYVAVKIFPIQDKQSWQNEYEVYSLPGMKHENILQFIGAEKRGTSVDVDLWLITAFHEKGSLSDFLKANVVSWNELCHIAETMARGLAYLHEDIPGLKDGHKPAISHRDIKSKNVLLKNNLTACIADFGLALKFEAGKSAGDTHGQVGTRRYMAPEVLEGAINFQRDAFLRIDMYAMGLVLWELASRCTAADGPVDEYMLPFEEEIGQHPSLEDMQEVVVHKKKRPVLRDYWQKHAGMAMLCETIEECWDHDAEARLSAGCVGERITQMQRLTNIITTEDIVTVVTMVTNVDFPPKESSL

Q: For `Cc1cccc(-c2nc(Nc3ccncc3)c3ccccc3n2)n1` [NK215], which “KINOMEscan GAK” value [1] is on record?
A: 0

Q: What about the “KINOMEscan PRKACA” value [2] of the same compound?
A: 23

Q: And the “KINOMEscan ACVR2A” value [3]?
A: 24

Q: What about the “KINOMEscan WEE1” value [4] of the same compound?
A: 23

Q: And the “KINOMEscan CDK8” value [5]?
A: 65

Q: And the “KINOMEscan CAMK2G” value [6]?
A: 0

Q: What about the “KINOMEscan LRRK2” value [7] of the same compound?
A: 0

Q: What about the “KINOMEscan TBK1” value [8] of the same compound?
A: 41
